What was measured:
HBV [1] = settings: patients chronically infected with HBV; cited from earlier work
HDV = assay: Inhibition of HDV infection of primary human hepatocytes, antigenomic HDV RNA by real-time PCR; assay type: cell-based; settings: for Inhibition of HDV replication: 50 nM final concentration, primary human hepatocytes, 7 days
Description: (§1) In order to test inhibitory activity of the IA and related proteins, primary human hepatocytes infected in the presence of 5% polyethylene glycol 8000 (Sigma) were used with in vitro assembled HDV at a multiplicity of 10 genome equivalents (GE) per cell, or by HBV at a multiplicity of 50 GE/cell. […] One related protein was the S1S2, lacking the Fc domain (FIG. 1B). Another was a synthetic peptide corresponding to positions 2-48 of the ayw PreS1, with myristoylation at the N terminal glycine as described in Engelke, et al., 2006, Hepatology, 43:750-760. After 7-8 days total, cell RNA was extracted and HDV antigenomic RNA and HBV RNA were quantitated using real-time PCR.
Others have shown that peptides based on the N terminus of HBV preS1 are able to interfere with infection of primary hepatocytes and of HepaRG cells, a cell line made from a differentiated liver tumor (Gripon, et al., 2005, J. Virol., 79:1613-1622, Gripon, et al., 2002, Proc. Natl. Acad. Sci., USA 99:15655-15660). […] Secreted IAs were tested for their ability to interfere with the infection of primary human hepatocytes by HDV. For these studies the source of IA was simple dilutions of the media from transiently transfected cells that both expressed and secreted the IA. To assess HDV replication the total RNA was extracted after 7 days and antigenomic RNA was quantitated by real-time PCR.

[2] = Ultracentrifugation of media to test whether released IA is a soluble protein; assay type: physicochemical; settings: conditions that pellet HDV and HBV subviral particles
Description: In addition, experiments were designed to tested whether the released IA was actually a soluble protein. Media samples containing albumin and secreted […] were clarified by low speed centrifugation and then subjected to ultracentrifugation, using conditions that pellet HDV and HBV subviral particles. It was observed that about >85% of the albumin and S1S2-IA remained in the supernatant. Without wishing to be bound by any particular theory, it is believed that because the IAs behaved similar to albumin, than IAs were soluble proteins.

HBV [3] = assay: Inhibition of HBV infection of primary human hepatocytes, HBV RNA by real-time PCR; assay type: cell-based, Hepatitis B virus
Description: as §1
In parallel with the experiment shown in FIG. 4B, experiments were designed to determined whether S1S2-IA would also act on HBV infection.

HBV [4] = settings: in vivo; cited from earlier work

C=C1[C@H](CO)[C@@H](O)C[C@@H]1n1cnc2c(=O)[nH]c(N)nc21 [Entecavir]
Suppression of HBV levels in serum (HBV [1]): 100,000 fold

S1-IA: immunoadhesin: HBV preS1 domain (1-119, adw2) fused N terminally to Fc region of a rabbit IgG heavy chain
Inhibition of HDV replication (HDV): 90%

S1S2-IA: immunoadhesin: HBV preS1 plus preS2 domains fused to Fc region of a rabbit IgG heavy chain
Fraction remaining in the supernatant after ultracentrifugation [2]: > 85%
Inhibition of HDV replication (HDV): 90%
Effect of 30 minute pretreatment on level of inhibition of HDV (HDV; pretreatment in addition to treatment during infection): did not significantly increase the level of inhibition
Inhibition of HBV infection compared with HDV infection (HBV [3]; parallel experiments): not significantly different
Inhibition of HBV infection (HBV [3]; primary human hepatocytes, HBV RNA): there was inhibition

acylated peptide: synthetic peptide corresponding to positions 2-48 of the ayw PreS1, with myristoylation at the N terminal glycine [reference compound]
Inhibition of HDV replication compared with S1-IA and S1S2-IA (HDV; primary human hepatocytes, 2, 10 and 50 nM): more inhibition than the two IA

α-interferon
Patients in whom effective (HBV [4]): about 33%

Reference: patent publication US8748373B2, “Hepatitis B virus compositions and methods of use” (priority 2007, dated 2014)
